This note sets out measurements from US9416123B2, “Kinase modulators for the treatment of cancer” (Synovo GmbH, priority 2011, dated 2016).

pIC50: −log10 of the molar value. Some results are limits rather than exact numbers.

Series [1] addresses B-Raf V600E (Homo sapiens (Human), UniProt P15056, V600E). The series is described as follows: Kinase assay (33P FlashPlate) B-Raf V600E. As to conditions: read-out: IC50 B-Raf V600E (n = 1); Table 1, n = 1.
Procedure: (§1) FlashPlates from Perkin Elmer (Boston, Mass., USA) with a 50 μl reaction volume are used. The reaction cocktail was pipetted in 4 steps in the following order: 15 μl of ATP solution (in H2O), 20 μl of assay buffer (see below), 5 μl of test sample in 10% DMSO, 10 μl of enzyme/substrate mixture (in H2O). […] Certain assays also contained 1 mM CaCl2, 4 mM EDTA, 5 μg/ml Phosphatidylserine and 1 μg/ml 1.2-Dioleyl-glycerol. The MYLK2, CAMK1D, CAMK2A, CAMK2B, CAMK2D, CAMK4, CAMKK2, DAPK2 and EEF2K assays additionally contained 1 μg/ml Calmodulin and 0.5 mM CaCl2. The PRKG1 and PRKG2 assays additionally contained 1 μM cGMP. Recombinant Protein Kinases: All protein kinases were expressed in Sf9 insect cells or in E. coli as recombinant GST-fusion proteins or His-tagged proteins. All kinases were produced from human cDNAs, except JAK2, for which the mouse cDNA was used. […] The purity of the protein kinases was examined by SDS-PAGE/coomassie staining. The identity of the protein kinases was checked by mass spectroscopy. Assays were made under license from Chemicon International Inc. for JAK2. […] The reaction was stopped with 50 μl of 2% (v/v) H3PO4, plates were aspirated and washed two times with 200 μl 0.9% (w/v) NaCl. All assays were performed with a BeckmanCoulter Biomek 2000/SL robotic system.
Series [2] has as its target VEGFR-2 (Homo sapiens (Human), UniProt P35968). The series is described as follows: Kinase assay (33P FlashPlate) VEGFR-2. The following applies: read-out: IC50 VEGFR-2 (n = 1); Table 1, n = 1.
Procedure: as §1
Series [3] deals with Src (Homo sapiens (Human), UniProt P12931). The series is described as follows: Kinase assay (33P FlashPlate) Src. As to conditions: read-out: IC50 Src (n = 1); Table 1, n = 1.
Procedure: as §1
In series [4] the target is RIPK2 (Homo sapiens (Human), UniProt O43353). The experiment in a line: Kinase assay (33P FlashPlate) RIPK2. It is filed as biochemical. The following applies: Table 3.
Sequence of RIPK2 (O43353 whole entry): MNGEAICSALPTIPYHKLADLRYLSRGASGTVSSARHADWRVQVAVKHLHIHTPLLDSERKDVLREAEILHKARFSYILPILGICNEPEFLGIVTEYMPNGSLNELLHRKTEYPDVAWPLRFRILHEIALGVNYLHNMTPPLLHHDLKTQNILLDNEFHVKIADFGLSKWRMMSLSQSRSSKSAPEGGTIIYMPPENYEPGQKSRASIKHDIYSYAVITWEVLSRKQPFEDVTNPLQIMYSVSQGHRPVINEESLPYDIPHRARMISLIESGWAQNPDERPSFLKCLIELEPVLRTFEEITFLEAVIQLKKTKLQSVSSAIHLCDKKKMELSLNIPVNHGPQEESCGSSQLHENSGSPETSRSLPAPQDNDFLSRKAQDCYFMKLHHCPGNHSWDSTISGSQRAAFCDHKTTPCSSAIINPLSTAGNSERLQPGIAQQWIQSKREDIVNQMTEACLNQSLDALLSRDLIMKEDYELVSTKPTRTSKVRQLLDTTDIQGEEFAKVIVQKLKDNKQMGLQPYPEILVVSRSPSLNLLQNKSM

Sequence of Src (P12931 whole entry, looked up): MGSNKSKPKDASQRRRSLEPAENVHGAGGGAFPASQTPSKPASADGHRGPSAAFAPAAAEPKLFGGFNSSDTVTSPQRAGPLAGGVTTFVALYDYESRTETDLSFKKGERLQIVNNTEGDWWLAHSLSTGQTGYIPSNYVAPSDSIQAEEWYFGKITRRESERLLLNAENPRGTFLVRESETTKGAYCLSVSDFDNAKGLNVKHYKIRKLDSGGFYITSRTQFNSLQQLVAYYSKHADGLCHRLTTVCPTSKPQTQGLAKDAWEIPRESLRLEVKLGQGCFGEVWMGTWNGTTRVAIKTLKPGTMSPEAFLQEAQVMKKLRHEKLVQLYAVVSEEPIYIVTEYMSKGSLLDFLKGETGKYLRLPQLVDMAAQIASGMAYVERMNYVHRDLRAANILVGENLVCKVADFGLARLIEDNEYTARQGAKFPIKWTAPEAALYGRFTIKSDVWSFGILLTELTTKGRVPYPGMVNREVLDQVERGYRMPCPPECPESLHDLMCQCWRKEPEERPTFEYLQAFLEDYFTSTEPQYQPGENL
Sequence of B-Raf V600E (P15056 whole entry V600E): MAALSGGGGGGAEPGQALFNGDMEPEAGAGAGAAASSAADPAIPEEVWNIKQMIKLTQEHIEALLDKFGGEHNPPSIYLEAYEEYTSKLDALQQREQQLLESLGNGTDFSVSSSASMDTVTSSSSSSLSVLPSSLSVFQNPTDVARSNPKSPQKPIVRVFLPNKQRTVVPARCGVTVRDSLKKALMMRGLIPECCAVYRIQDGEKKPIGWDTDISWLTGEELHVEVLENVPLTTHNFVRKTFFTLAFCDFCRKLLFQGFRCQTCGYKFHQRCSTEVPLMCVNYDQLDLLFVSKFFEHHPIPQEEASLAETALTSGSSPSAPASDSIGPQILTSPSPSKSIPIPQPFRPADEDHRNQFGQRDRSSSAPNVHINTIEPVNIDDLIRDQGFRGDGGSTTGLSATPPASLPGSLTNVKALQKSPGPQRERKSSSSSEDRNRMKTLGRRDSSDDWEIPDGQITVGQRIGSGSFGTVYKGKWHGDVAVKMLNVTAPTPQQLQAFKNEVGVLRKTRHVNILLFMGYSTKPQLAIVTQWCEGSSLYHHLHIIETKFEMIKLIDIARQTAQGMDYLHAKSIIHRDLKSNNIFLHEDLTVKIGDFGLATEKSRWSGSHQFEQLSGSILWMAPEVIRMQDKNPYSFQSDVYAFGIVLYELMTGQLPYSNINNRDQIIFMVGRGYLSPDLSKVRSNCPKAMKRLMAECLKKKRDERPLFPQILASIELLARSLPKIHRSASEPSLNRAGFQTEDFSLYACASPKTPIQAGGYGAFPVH
Sequence of VEGFR-2 (P35968 20-1356): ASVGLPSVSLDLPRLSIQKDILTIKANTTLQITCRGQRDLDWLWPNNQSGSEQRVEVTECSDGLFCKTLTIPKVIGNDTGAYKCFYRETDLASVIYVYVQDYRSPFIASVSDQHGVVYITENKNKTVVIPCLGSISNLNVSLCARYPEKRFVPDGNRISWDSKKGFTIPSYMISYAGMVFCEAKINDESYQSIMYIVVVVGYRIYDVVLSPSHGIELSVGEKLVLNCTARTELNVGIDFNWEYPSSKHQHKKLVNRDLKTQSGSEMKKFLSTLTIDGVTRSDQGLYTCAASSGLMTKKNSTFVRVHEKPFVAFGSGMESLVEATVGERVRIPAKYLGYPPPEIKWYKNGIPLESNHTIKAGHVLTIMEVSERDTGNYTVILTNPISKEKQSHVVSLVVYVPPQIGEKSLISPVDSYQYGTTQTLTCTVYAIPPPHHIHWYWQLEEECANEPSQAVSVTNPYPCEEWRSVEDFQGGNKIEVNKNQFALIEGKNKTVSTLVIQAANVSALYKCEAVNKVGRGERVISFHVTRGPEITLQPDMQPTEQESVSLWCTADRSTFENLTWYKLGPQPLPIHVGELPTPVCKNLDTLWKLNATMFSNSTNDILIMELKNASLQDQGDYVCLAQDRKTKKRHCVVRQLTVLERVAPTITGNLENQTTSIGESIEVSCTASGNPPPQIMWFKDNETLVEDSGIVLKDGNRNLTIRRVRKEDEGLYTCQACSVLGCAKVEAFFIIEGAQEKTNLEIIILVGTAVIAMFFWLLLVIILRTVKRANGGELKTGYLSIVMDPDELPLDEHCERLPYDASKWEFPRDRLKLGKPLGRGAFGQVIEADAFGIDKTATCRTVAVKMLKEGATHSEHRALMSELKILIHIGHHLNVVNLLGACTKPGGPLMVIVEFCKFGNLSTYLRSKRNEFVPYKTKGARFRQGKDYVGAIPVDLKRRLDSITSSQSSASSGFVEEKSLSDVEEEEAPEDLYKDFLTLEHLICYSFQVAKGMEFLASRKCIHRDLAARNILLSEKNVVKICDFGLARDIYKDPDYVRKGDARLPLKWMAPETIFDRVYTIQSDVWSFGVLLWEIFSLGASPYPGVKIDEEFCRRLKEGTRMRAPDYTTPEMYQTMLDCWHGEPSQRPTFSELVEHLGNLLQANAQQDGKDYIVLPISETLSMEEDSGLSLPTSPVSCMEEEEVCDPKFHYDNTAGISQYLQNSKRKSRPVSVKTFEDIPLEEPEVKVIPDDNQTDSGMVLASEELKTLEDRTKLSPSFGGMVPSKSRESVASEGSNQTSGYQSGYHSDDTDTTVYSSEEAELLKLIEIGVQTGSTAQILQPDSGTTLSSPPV

In the case of `Clc1cc(Cl)c(N/N=C/c2ccncc2)c(Cl)c1` [Compound 3a], the negative-log IC50 (pIC50) – broadly, the IC50 on a negative log10 scale, so that one unit is a factor of ten – is 5.60 in series [1], 6.68 in series [2] and 5.70 in series [3].
Take `Nc1c(-c2ccc(F)cc2)c(-c2ccncc2)nn1-c1ccccc1` [Compound 5, 4-(4-Fluorophenyl)-1-phenyl-3-(pyridine-4-yl)-1H-pyrazol-5-amine]: the pIC50 is 6.05 in series [1], 5.62 in series [2] and 4.28 in series [3].
The compound `Nc1c(-c2ccc(F)cc2)c(-c2ccncc2)nn1-c1c(Cl)cc(Cl)cc1Cl` [Compound 6] gave a pIC50 in series [4] of 7.39.
As for `COc1ccc(-n2nc(-c3ccncc3)c(-c3ccc(F)cc3)c2N)cc1` [Compound 8], the melting point (usually the temperature, or range, at which the solid turns liquid) came out at 200 °C. Moreover, the negative logarithm of the IC50 (pIC50) in series [1] was 6.07. The pIC50 in series [2] is 5.72. Further, the negative logarithm of the IC50 (pIC50) in series [3] was 4.64.
On to `N#Cc1ccc(-n2nc(-c3ccncc3)c(-c3ccc(F)cc3)c2N)cc1` [Compound 11, 4-(5-Amino-4-(4-fluorophenyl)-3-(pyridine-4-yl)-1H-pyrazol-1-yl)benzonitrile], for which the results for the pIC50 in series [1], in series [2] and in series [3] were 5.77, 5.89 and less than 4.00, respectively.
Regarding `NC(=O)c1c(-c2ccncc2)nn(-c2c(Cl)cc(Cl)cc2Cl)c1N` [Compound 14, 5-Amino-3-(pyridin-4-yl)-1-(2,4,6-trichlorophenyl)-1H-pyrazole-4-carboxamide], the values for the negative logarithm of the IC50 (pIC50) in series [1], in series [2] and in series [3] were less than 4.00, 4.51 and 5.19, respectively.
`CCOC(=O)c1c(-c2ccncc2)nn(-c2c(Cl)cc(Cl)cc2Cl)c1N` [Compound 15, Ethyl 5-amino-3-(pyridin-4-yl)-1-(2,4,6-trichlorophenyl)-1H-pyrazole-4-carboxylate]: the pIC50 in series [1], in series [2] and in series [3] was less than 4.00 each time.
As for `Nc1c(C(=O)O)c(-c2ccncc2)nn1-c1c(Cl)cc(Cl)cc1Cl` [Compound 16, 5-Amino-3-(pyridine-4-yl)-1-(2,4,6-trichlorophenyl)-1H-pyrazole-4-carboxylic acid], the melting point turned out to be 208 °C. Moreover, the negative-log IC50 (pIC50) in series [1] is less than 4.00. Besides, in series [2], the negative logarithm of the IC50 (pIC50) is 4.37. Besides, the negative logarithm of the IC50 (pIC50) in series [3] was 4.26.
For `NC(=O)c1c(-c2ccncc2)nn(-c2ccccc2)c1N` [Compound 18, 5-Amino-1-phenyl-3-(pyridine-4-yl)-1H-pyrazole-4-carboxamide], the pIC50 in series [1] was 4.19; in series [2], 4.32; in series [3] it was 4.72.
As for `Nc1cc(-c2ccncc2)nn1-c1c(Cl)cc(Cl)cc1Cl` [Compound 19, 3-(Pyridin-4-yl)-1-(2,4,6-trichlorophenyl)-1H-pyrazol-5-amine], the pIC50 in series [1] was less than 4.00; in series [2], 4.06; in series [3], less than 4.00.
For the compound `Fc1ccc(-c2cn(-c3ccc(C(F)(F)F)cc3)nc2-c2ccncc2)cc1` [Compound 20], the pIC50 in series [1] is 5.57; in series [2] it was 4.57; in series [3], 4.92.
